# PMC12655637, “Design, Synthesis, and Mechanistic Study of Novel Ciprofloxacin/Thiazole Chalcone Hybrids as Potential Anticancer Agents” (Pharmaceuticals, 2025)
# What was measured:
# T-47D = assay: NCI-60 screening, one-dose (10 µM) and five-dose, SRB; format: cell-based, human; conditions: five-dose
# IGROV1 = assay: as above; format: cell-based, human
# NCI-H460 = assay: as above; format: cell-based, human
# 786−0 = assay: as above; format: cell-based, human
# MCF7 = assay: as above; format: cell-based, human
# A549/ATCC = assay: as above; format: cell-based, human
# HT29 = assay: as above; format: cell-based, human
# topoisomerase IIβ = topoisomerase IIβ (Homo sapiens, UniProt Q02880); assay: Topoisomerase II inhibition assay (ELISA kit of human DNA topoisomerase)
# SK-OV-3 = assay: NCI-60 screening, one-dose (10 µM) and five-dose, SRB; format: cell-based, human
# MALME-3M = assay: as above; format: cell-based, human
# [1] = system: 60 human cancer cell lines; assay: NCI-60 screening, full panel (mean growth, MID a, ranges over all lines)
# Protocol: The screening was performed in accordance with the protocols set forth by the Drug Evaluation Department of the National Cancer Institute (NCI), Bethesda, USA, for in vitro anticancer efficacy at a single concentration of 10 µM against a panel of 60 cancer cell lines derived from nine distinct organs (https://dctd.cancer.gov/data-tools-biospecimens/data (accessed on 15 March 2023 and 6 January 2024)) [37].
# The log10 GI50, log10 TGI, and log10 LC50 values were subsequently calculated as the averages of the log10 values of the respective individual GI50, TGI, and LC50 measurements. Negative numbers signified the most sensitive cell lines.
# One way to measure a compound’s selectivity is to divide its subpanel MID^b (in μM) by the MID^a (in μM), which is the average sensitivity of all cell lines to the test agent.
# At the National Cancer Institute (NCI) in Bethesda, USA, researchers examined the anticancer potential of the target compounds under investigation using nine panels of sixty different cell lines obtained from nine different cancers that were housed in the NCI library. Following the protocols laid out by the National Cancer Institute (https://dctd.cancer.gov/data-tools-biospecimens/data (accessed on 15 March 2023 and 6 January 2024)), the screening procedures were carried out [37]. The anticancer screening was carried out at a single dose of 10^−5 M; the results obtained were expressed as growth inhibition (%).
# The anti-cancer potential of the tested compounds was evaluated at the National cancer institute (NCI), Bethesda, USA, against 9 panels of 60 various cell lines derived from nine human tumours available usually at NCI library. The procedures for the screening were described in details in NCI website (dttp://www.dtp.nci.nih.gov.) and were done according to NCI protocols. The anticancer screening was carried out at single dose of 10^-5 M. The results obtained as growth inhibition (%).
# Cell lines were grown in Roswell Park Memorial Institute medium (RPMI) with 5% fetal bovine serum and 2% μM L-glutamine. Cancer cells are inoculated into 96 well microtiter plates in 100 μL at plating densities ranging from 5000 to 40,000 cells/well depending on the doubling time of individual cell lines. Then microtiter plates are incubated at 37 °C, 5% CO2, 95% air and 100% relative humidity for 24 h prior to the addition of the tested compounds. After 24 h, two plates of each cell line are fixed in situ with trichloroacetic acid (TCA). The tested compounds were dissolved in dimethyl sulfoxide (DMSO) and stored in the freezer prior to use. An aliquot of frozen drug concentrate is diluted to the desired concentration with complete medium containing 50 μg/mL gentamicin.
# OVCAR-8 = assay: NCI-60 screening, one-dose (10 µM) and five-dose, SRB; format: cell-based, human
# SW-620 = assay: as above; format: cell-based, human
# HOP-62 = assay: as above; format: cell-based, human; conditions: five-dose, HOP-62
# U251 = assay: as above; format: cell-based, human
# SN12C = assay: as above; format: cell-based, human
# NCI-H322M = assay: as above; format: cell-based, human
# HCT-116 = assay: as above; format: cell-based, human; conditions: Homo sapiens
# UACC-257 = assay: as above; format: cell-based, human
# MOLT-4 = assay: as above; format: cell-based, human
# NCI/ADR-RES = assay: as above; format: cell-based, human
# SR = assay: as above; format: cell-based, human; conditions: five-dose
# RPMI-8226 = assay: as above; format: cell-based, human; conditions: RPMI-8226
# M14 = assay: as above; format: cell-based, human
# RXF 393 = assay: as above; format: cell-based; conditions: Homo sapiens; 10 μM; RXF 393, Renal Cancer; read-out: Growth percentage
# MDA-MB-468 = assay: as above; format: cell-based, human; conditions: five-dose, MDA-MB-468
# Source text: Control cells Test cells FLD
# available usually at NCI library.
# An aliquot of frozen drug concentrate is […]
# PC-3 = assay: as above; format: cell-based, human
# UACC-62 = assay: as above; format: cell-based
# HL-60(TB) = assay: as above; format: cell-based, human; conditions: HL-60(TB)
# NCI-H23 = assay: as above; format: cell-based, human
# [2] = Homo sapiens, IGROV-1, five-dose, IGROV1
# [3] = Homo sapiens, five-dose, NCI-H460
# [4] = Homo sapiens, five-dose, read-out: LC50 (the source's name)
# [5] = Homo sapiens, HT-29, five-dose, HT29
# [6] = Homo sapiens, five-dose, OVCAR-8
# [7] = Homo sapiens, five-dose, SW-620
# [8] = Homo sapiens, read-out: LC50 (the source's name)
# [9] = Homo sapiens, U-251, five-dose, U251
# [10] = Homo sapiens, five-dose, UACC-257
# [11] = Homo sapiens, five-dose, MOLT-4
# [12] = Homo sapiens, five-dose, UACC-62
# [13] = Homo sapiens, five-dose, NCI-H23
# Sequence of topoisomerase IIβ (Q02880 2-1626): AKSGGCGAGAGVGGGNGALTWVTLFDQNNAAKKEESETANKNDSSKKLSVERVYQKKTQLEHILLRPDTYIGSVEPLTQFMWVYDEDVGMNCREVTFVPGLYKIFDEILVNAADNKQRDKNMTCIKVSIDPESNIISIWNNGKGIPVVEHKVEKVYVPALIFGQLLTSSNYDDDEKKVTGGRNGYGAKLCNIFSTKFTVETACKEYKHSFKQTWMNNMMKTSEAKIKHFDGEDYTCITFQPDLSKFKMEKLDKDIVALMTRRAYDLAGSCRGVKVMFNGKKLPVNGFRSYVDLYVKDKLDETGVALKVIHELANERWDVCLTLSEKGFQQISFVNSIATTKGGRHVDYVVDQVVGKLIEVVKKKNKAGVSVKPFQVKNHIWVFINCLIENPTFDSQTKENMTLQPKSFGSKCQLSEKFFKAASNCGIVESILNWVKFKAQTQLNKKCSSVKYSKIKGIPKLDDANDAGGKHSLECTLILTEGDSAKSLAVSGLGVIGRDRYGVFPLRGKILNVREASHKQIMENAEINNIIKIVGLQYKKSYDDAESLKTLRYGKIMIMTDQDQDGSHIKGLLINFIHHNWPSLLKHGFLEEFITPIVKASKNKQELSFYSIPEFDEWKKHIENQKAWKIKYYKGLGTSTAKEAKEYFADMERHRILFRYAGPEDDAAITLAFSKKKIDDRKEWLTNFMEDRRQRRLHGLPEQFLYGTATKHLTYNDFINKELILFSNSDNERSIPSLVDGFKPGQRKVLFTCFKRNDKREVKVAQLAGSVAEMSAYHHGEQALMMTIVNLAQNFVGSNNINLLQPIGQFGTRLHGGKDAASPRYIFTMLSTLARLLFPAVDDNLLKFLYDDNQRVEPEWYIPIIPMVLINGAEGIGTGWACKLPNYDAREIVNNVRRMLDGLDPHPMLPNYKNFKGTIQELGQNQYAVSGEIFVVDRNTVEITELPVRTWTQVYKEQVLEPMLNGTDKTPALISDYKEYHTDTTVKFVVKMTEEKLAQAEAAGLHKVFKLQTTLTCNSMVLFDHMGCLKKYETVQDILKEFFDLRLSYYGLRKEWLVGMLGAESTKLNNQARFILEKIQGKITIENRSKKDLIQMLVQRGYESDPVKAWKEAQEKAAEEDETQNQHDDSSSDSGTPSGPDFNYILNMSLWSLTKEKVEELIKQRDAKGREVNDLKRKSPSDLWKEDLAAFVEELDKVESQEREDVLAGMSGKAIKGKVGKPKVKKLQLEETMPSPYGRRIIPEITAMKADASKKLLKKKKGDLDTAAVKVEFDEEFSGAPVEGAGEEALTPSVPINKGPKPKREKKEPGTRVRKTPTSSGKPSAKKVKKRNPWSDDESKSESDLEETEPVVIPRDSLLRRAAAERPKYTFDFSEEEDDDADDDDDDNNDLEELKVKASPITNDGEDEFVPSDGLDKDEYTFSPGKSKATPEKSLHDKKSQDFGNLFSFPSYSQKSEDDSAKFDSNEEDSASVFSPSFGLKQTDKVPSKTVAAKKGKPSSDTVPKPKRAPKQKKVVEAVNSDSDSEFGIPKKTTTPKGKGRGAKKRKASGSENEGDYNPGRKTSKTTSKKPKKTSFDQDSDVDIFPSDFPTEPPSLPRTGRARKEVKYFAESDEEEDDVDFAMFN
structure (smiles),measurement,setting,value
"Cc1nc(SCC(=O)N2CCN(c3cc4c(cc3F)c(=O)c(C(=O)O)cn4C3CC3)CC2)sc1C(=O)/C=C/c1cccc(Cl)c1 [Compound 4b, (E)-7-(4-(2-((5-(3-(3-Chlorophenyl)acryloyl)-4-methylthiazol-2-yl)thio)acetyl)piperazin-1-yl)-1-cyclopropyl-6-fluoro-4-oxo-1,4-dihydroquinoline-3-carboxylic Acid]",GI50,"T-47D; Homo sapiens, T47D",> 100 µM
same,IC50,"T-47D; Homo sapiens, T47D",> 100 µM
same,CC50,"T-47D; Homo sapiens, T47D, read-out: LC50 (the source's name)",> 100 µM
same,TGI,T-47D,100.0 µM
same,Growth percentage,"IGROV1; 10 μM, IGROV1, Ovarian Cancer",73.9%
same,GI50,IGROV1; [2],> 100 µM
same,IC50,IGROV1; [2],> 100 µM
same,CC50,"IGROV1; Homo sapiens, IGROV-1, five-dose, IGROV1, read-out: LC50 (the source's name)",> 100 µM
same,TGI,"IGROV1; five-dose, IGROV1",100.0 µM
same,activity at 10 µM,"NCI-H460; Homo sapiens, NCI-H460, 10 μM, NCI-H460, Non-Small-Cell Lung Cancer, read-out: Growth percentage",76.7%
same,GI50,NCI-H460; [3],58.9 µM
same,IC50,NCI-H460; [3],70.8 µM
same,CC50,"NCI-H460; Homo sapiens, five-dose, NCI-H460, read-out: LC50 (the source's name)",> 100 µM
same,TGI,"NCI-H460; five-dose, NCI-H460",100.0 µM
same,activity at 10 µM,"786−0; Homo sapiens, 10 μM, 786−0, Renal Cancer, read-out: Growth percentage",74.3%
same,GI50,"786−0; Homo sapiens, five-dose, 786−0",> 100 µM
same,IC50,"786−0; Homo sapiens, five-dose, 786−0",> 100 µM
same,CC50,"786−0; Homo sapiens, five-dose, 786−0, read-out: LC50 (the source's name)",> 100 µM
same,TGI,"786−0; five-dose, 786−0",100.0 µM
same,activity at 10 µM,"MCF7; Homo sapiens, MCF7, 10 μM, MCF7, Breast Cancer, read-out: Growth percentage",6.5%
same,GI50,"MCF7; Homo sapiens, five-dose, MCF7",0.4 µM
same,IC50,"MCF7; Homo sapiens, five-dose, MCF7",0.6 µM
same,CC50,"MCF7; Homo sapiens, five-dose, MCF7, read-out: LC50 (the source's name)",> 100 µM
same,TGI,"MCF7; five-dose, MCF7",3.5 µM
same,activity at 10 µM,"A549/ATCC; Homo sapiens, 10 μM, Non-Small-Cell Lung Cancer, read-out: Growth percentage",82.4%
same,GI50,"A549/ATCC; Homo sapiens, five-dose",> 100 µM
same,IC50,"A549/ATCC; Homo sapiens, five-dose",> 100 µM
same,CC50,A549/ATCC; [4],> 100 µM
same,TGI,A549/ATCC; five-dose,100.0 µM
same,activity at 10 µM,"HT29; Homo sapiens, HT-29, 10 μM, HT29, Colon Cancer, read-out: Growth percentage",24.4%
same,GI50,HT29; [5],> 100 µM
same,IC50,HT29; [5],> 100 µM
same,CC50,"HT29; Homo sapiens, HT-29, five-dose, HT29, read-out: LC50 (the source's name)",> 100 µM
same,TGI,"HT29; five-dose, HT29",100.0 µM
same,TOPO II fld (fold of control),"topoisomerase IIβ; HCT116, control = 1",0.266
same,Topoisomerase II % Inhibition,topoisomerase IIβ; in comparison to negative control,73.4%
same,activity at 10 µM,"SK-OV-3; Homo sapiens, 10 μM, SK-OV-3, Ovarian Cancer, read-out: Growth percentage",46.3%
same,IC50,"SK-OV-3; Homo sapiens, five-dose, SK-OV-3",> 100 µM
same,CC50,"SK-OV-3; Homo sapiens, five-dose, SK-OV-3, read-out: LC50 (the source's name)",> 100 µM
same,TGI,"SK-OV-3; five-dose, SK-OV-3",100.0 µM
same,Growth percentage,"MALME-3M; 10 μM, Melanoma",143.6%
same,GI50,"MALME-3M; Homo sapiens, five-dose",> 100 µM
same,IC50,"MALME-3M; Homo sapiens, five-dose",> 100 µM
same,CC50,MALME-3M; [4],> 100 µM
same,TGI,MALME-3M; five-dose,100.0 µM
same,CC50,"[1]; Homo sapiens, read-out: LC50",0.6 to 100 µM
same,activity at 10 µM,"[1]; Homo sapiens, read-out: Mean growth percentage",49.6%
same,Full-panel MG-MID,[1]; mean sensitivity across all cell lines in the panel,70.3 µM
same,activity at 10 µM,"OVCAR-8; Homo sapiens, 10 μM, OVCAR-8, Ovarian Cancer, read-out: Growth percentage",46.1%
same,GI50,OVCAR-8; [6],> 100 µM
same,IC50,OVCAR-8; [6],> 100 µM
same,CC50,"OVCAR-8; Homo sapiens, five-dose, OVCAR-8, read-out: LC50 (the source's name)",> 100 µM
same,TGI,"OVCAR-8; five-dose, OVCAR-8",100.0 µM
same,activity at 10 µM,"SW-620; Homo sapiens, 10 μM, SW-620, Colon Cancer, read-out: Growth percentage",53.3%
same,GI50,SW-620; [7],10.5 µM
same,IC50,SW-620; [7],15.1 µM
same,CC50,"SW-620; Homo sapiens, five-dose, SW-620, read-out: LC50 (the source's name)",> 100 µM
same,TGI,"SW-620; five-dose, SW-620",40.7 µM
same,GI50,HOP-62; Homo sapiens,4.3 µM
same,IC50,HOP-62; Homo sapiens,> 100 µM
same,CC50,HOP-62; [8],> 100 µM
same,TGI,HOP-62,100.0 µM
same,activity at 10 µM,"U251; Homo sapiens, U-251, 10 μM, U251, CNS Cancer, read-out: Growth percentage",41.9%
same,GI50,U251; [9],34.7 µM
same,IC50,U251; [9],> 100 µM
same,CC50,"U251; Homo sapiens, U-251, five-dose, U251, read-out: LC50 (the source's name)",> 100 µM
same,TGI,"U251; five-dose, U251",100.0 µM
same,activity at 10 µM,"SN12C; Homo sapiens, 10 μM, Renal Cancer, read-out: Growth percentage",51%
same,GI50,"SN12C; Homo sapiens, five-dose",44.7 µM
same,IC50,"SN12C; Homo sapiens, five-dose",> 100 µM
same,CC50,SN12C; [4],> 100 µM
same,TGI,SN12C; five-dose,100.0 µM
same,Growth percentage,"NCI-H322M; 10 μM, Non-Small-Cell Lung Cancer",100.9%
same,GI50,"NCI-H322M; Homo sapiens, five-dose",> 100 µM
same,IC50,"NCI-H322M; Homo sapiens, five-dose",> 100 µM
same,LC50,"NCI-H322M; Homo sapiens, five-dose",> 100 µM
same,TGI,NCI-H322M; five-dose,100.0 µM
same,activity at 10 µM,"HCT-116; HCT-116, 10 μM, HCT-116, Colon Cancer, read-out: Growth percentage",2.8%
same,GI50,"HCT-116; five-dose, HCT-116",0.2 µM
same,IC50,"HCT-116; five-dose, HCT-116",0.3 µM
same,activity at 10 µM,"UACC-257; Homo sapiens, 10 μM, UACC-257, Melanoma, read-out: Growth percentage",77.9%
same,GI50,UACC-257; [10],> 100 µM
same,IC50,UACC-257; [10],> 100 µM
same,CC50,"UACC-257; Homo sapiens, five-dose, UACC-257, read-out: LC50 (the source's name)",> 100 µM
same,TGI,"UACC-257; five-dose, UACC-257",100.0 µM
same,activity at 10 µM,"MOLT-4; Homo sapiens, 10 μM, MOLT-4, Leukemia, read-out: Growth percentage",66.1%
same,GI50,MOLT-4; [11],12.9 µM
same,IC50,MOLT-4; [11],21.9 µM
same,LC50 (concentration killing 50% of cells),MOLT-4; [11],56.2 µM
same,TGI,"MOLT-4; five-dose, MOLT-4",26.9 µM
same,activity at 10 µM,"NCI/ADR-RES; Homo sapiens, 10 μM, Ovarian Cancer, read-out: Growth percentage",112%
same,GI50,"NCI/ADR-RES; Homo sapiens, five-dose",> 100 µM
same,IC50,"NCI/ADR-RES; Homo sapiens, five-dose",> 100 µM
same,CC50,NCI/ADR-RES; [4],> 100 µM
same,TGI,NCI/ADR-RES; five-dose,100.0 µM
same,GI50,SR; Homo sapiens,1.8 µM
same,IC50,SR; Homo sapiens,3.2 µM
same,CC50,SR; [8],9.1 µM
same,TGI,SR,4.1 µM
same,IC50,"RPMI-8226; Homo sapiens, RPMI-8226, five-dose",0.3 µM
same,GI50,"RPMI-8226; Homo sapiens, five-dose",0.2 µM
same,CC50,RPMI-8226; [4],0.6 µM
same,TGI,RPMI-8226; five-dose,0.3 µM
same,activity at 10 µM,"M14; Homo sapiens, 10 μM, M14, Melanoma, read-out: Growth percentage",48.7%
same,GI50,"M14; Homo sapiens, five-dose, M14",27.5 µM
same,IC50,"M14; Homo sapiens, five-dose, M14",69.2 µM
same,CC50,"M14; Homo sapiens, five-dose, M14, read-out: LC50 (the source's name)",> 100 µM
same,TGI,"M14; five-dose, M14",100.0 µM
same,activity at 10 µM,RXF 393,-8.1%
same,GI50,MDA-MB-468; Homo sapiens,3.9 µM
same,IC50,MDA-MB-468; Homo sapiens,> 100 µM
same,CC50,MDA-MB-468; [8],> 100 µM
same,TGI,MDA-MB-468,15.5 µM
same,activity at 10 µM,"PC-3; Homo sapiens, 10 μM, PC-3, Prostate Cancer, read-out: Growth percentage",74.1%
same,GI50,"PC-3; Homo sapiens, five-dose, PC-3",55 µM
same,IC50,"PC-3; Homo sapiens, five-dose, PC-3",> 100 µM
same,CC50,"PC-3; Homo sapiens, five-dose, PC-3, read-out: LC50 (the source's name)",> 100 µM
same,TGI,"PC-3; five-dose, PC-3",100.0 µM
same,activity at 10 µM,"UACC-62; Homo sapiens, 10 μM, UACC-62, Melanoma, read-out: Growth percentage",76.3%
same,GI50,UACC-62; [12],20.9 µM
same,IC50,UACC-62; [12],> 100 µM
same,CC50,"UACC-62; Homo sapiens, five-dose, UACC-62, read-out: LC50 (the source's name)",> 100 µM
same,TGI,"UACC-62; five-dose, UACC-62",100.0 µM
same,IC50,"HL-60(TB); Homo sapiens, HL-60, five-dose",3.7 µM
same,GI50,"HL-60(TB); Homo sapiens, five-dose",2.6 µM
same,CC50,HL-60(TB); [4],34.7 µM
same,TGI,HL-60(TB); five-dose,11.2 µM
same,activity at 10 µM,"NCI-H23; Homo sapiens, 10 μM, NCI-H23, Non-Small-Cell Lung Cancer, read-out: Growth percentage",54%
same,GI50,NCI-H23; [13],> 100 µM
same,IC50,NCI-H23; [13],> 100 µM
same,LC50 (50% lethal concentration),NCI-H23; [13],> 100 µM
same,TGI,"NCI-H23; five-dose, NCI-H23",100.0 µM
